Measured values reported in patent publication US11026942B2, “Agent for preventing and/or treating Alzheimer's disease” (KYOTO UNIVERSITY, priority 2015, dated 2021).

Columns and labels:
Format in all cases: cell-based, human
[1] = system: Aβ42; test: Aβ42 in FAD1 iPS cell-derived nerve cells (primary/secondary screening, dose dependency); settings: secondary screening, FAD1 iPS cell-derived nerve cells, numerical value (Aβ change rate)
Source text: (§1) To perform induction from iPS cells to the cerebral cortex nerve early and with high reproducibility, iPS cells introduced with human Neurogenin 2 gene (NGN2) linked to doxycycline-inducible promoter by using PiggyBac were used (FIG. 1a, FIG. 1b, FIG. 4a and FIG. 4b). IPS cells prepared from 4 patients with familial Alzheimer's disease (FAD), 2 patients with sporadic Alzheimer's disease (SAD) and 4 healthy individuals (HC) were used. The iPS cells were established by the method described in Okita K et al., Nature.
(§2) Structural formulas (those in the form of salt or halide are also described as free form) and the general names of the candidate compounds are shown in Table 1.
(§3) To further study reproducibility of the candidate drugs obtained by the primary screening, secondary screening was conducted. In addition to Aβ40, Aβ42, Aβ42/40 ratio, Aβ38, Aβ43, sAPPα, sAPPβ were also studied and each numerical value was obtained.

[2] = system: Aβ42/40 ratio; test: Aβ42/40 ratio in FAD1 iPS cell-derived nerve cells (primary/secondary screening, dose dependency); settings: secondary screening
Source text: as §1, §2, §3

[3] = system: Aβ38; test: Aβ38 in FAD1 iPS cell-derived nerve cells (secondary screening); parameters: scale not given here
Procedure: as §3

[4] = system: Aβ43; test: Aβ43 in FAD1 iPS cell-derived nerve cells (secondary screening); parameters: scale not given here
Procedure: as §3

[5] = system: sAPPα; test: sAPPα in FAD1 iPS cell-derived nerve cells (secondary screening); parameters: scale not given here; settings: secondary screening, FAD1 iPS cell-derived nerve cells
Procedure: as §3

[6] = system: sAPPβ; test: sAPPβ in FAD1 iPS cell-derived nerve cells (secondary screening); parameters: sAPPβ: scale not given here; settings: secondary screening, FAD1 iPS cell-derived nerve cells
Procedure: as §3

Row | Compound | Aβ42 [1] | Ratio Aβ42/40 [2] | Aβ38 [3] | Aβ43 [4] | sAPPα [5] | sAPPβ [6]
1 | CCN(CC)CCNC(C(=O)OCCC(C)C)c1ccccc1 (stereo not drawn) [compound 33, CAMYLOFINE] | 0.9 | 0.85 | 1.12 | 0.88 | 0.89 | 0.71
2 | c1cnc(N2CCN(Cc3ccc4c(c3)OCO4)CC2)nc1 [compound 36, PIRIBEDIL] | 0.87 | 0.83 | 1.11 | 1.09 | 0.92 | 0.82
3 | CCN(CC)CCOc1ccc(/C(=C(\Cl)c2ccccc2)c2ccccc2)cc1 [compound 9, CLOMIPHENE] | 0.83 | 0.89 | 1.04 | 0.86 | 0.71 | 0.66
4 | CC(C)CC(N(C)C)C1(c2ccc(Cl)cc2)CCC1 (stereo not drawn) [compound 126, SIBUTRAMINE] | 0.88 | 0.87 | 1.05 | 0.87 | 0.8 | 0.92
5 | CCOC(=O)OC(C)OC(=O)[C@@H]1N2C(=O)[C@@H](NC(=O)[C@H](N)c3ccccc3)[C@H]2SC1(C)C (stereo partly drawn) [compound 59, BACAMPICILLIN] | 1.09 | 1.15 | 1.32 | 1.44 | 1.11 | 1.23
6 | CN1Cc2c(N)cccc2C(c2ccccc2)C1 (stereo not drawn) [compound 28, NOMIFENSINE] | 0.8 | 0.75 | 0.95 | 0.85 | 0.82 | 0.67
7 | CCCCOc1cc(C(=O)NCCN(CC)CC)c2ccccc2n1 [compound 76, DIBUCAINE] | 0.9 | 0.94 | 0.97 | 0.98 | 0.77 | 0.77
8 | CCOC(=O)c1ccc(N)cc1 [compound 51, BENZOCAINE] | 0.94 | 1.03 | 1.05 | 0.99 | 0.8 | 0.87
9 | O=C1c2ccccc2C(=O)C1c1ccc(Cl)cc1 [compound 127, CHLORINDIONE] | 0.79 | 0.85 | 0.92 | 0.87 | 0.74 | 0.67
10 | CCCCOC(=O)c1ccc(N)cc1 [compound 58, BUTAMBEN] | 0.95 | 1.03 | 1.08 | 0.95 | 0.79 | 0.76
11 | NCCc1cnc[nH]1 [compound 121, HISTAMINE] | 1.02 | 1.09 | 1.22 | 1.23 | 1.08 | 1.15
12 | C/N=C(\NC#N)NCCSCc1nc[nH]c1C [compound 79, CIMETIDINE] | 0.98 | 1.04 | 1.03 | 0.92 | 0.87 | 0.88
13 | CC1=NS(=O)(=O)c2cc(Cl)ccc2N1 [compound 125, DIAZOXIDE] | 0.92 | 0.97 | 1.08 | 0.9 | 0.84 | 0.84
14 | CN1CCCN=C1COC(=O)C(O)(c1ccccc1)C1CCCCC1 (stereo not drawn) [compound 1, OXYPHENCYCLIMINE] | 0.99 | 1.03 | 1.08 | 0.98 | 0.91 | 1
15 | COc1ccccc1OCC(O)CN1CCN(CC(=O)Nc2c(C)cccc2C)CC1 (stereo not drawn) [compound 3, RANOLAZINE] | 0.85 | 0.89 | 1 | 0.82 | 0.64 | 0.61
16 | CCC[C@H](N[C@@H](C)C(=O)N1[C@H](C(=O)O)C[C@@H]2CCCC[C@@H]21)C(=O)OCC [compound 64, PERINDOPRIL ERBUMINE] | 0.81 | 0.85 | 1.01 | 0.91 | 0.7 | 0.53
17 | CC(=O)OC1CCC2(C)C(=CCC3C4CCC(=O)C4(C)CCC32)C1 (stereo not drawn) [compound 109, PRASTERONE ACETATE] | 0.68 | 0.7 | 0.9 | 0.85 | 0.69 | 0.55

Row | Compound | Aβ42 [1] | Ratio Aβ42/40 [2] | Aβ38 [3] | Aβ43 [4] | sAPPα [5] | sAPPβ [6]
18 | CCCCC(=O)N(Cc1ccc(-c2ccccc2-c2nn[nH]n2)cc1)[C@H](C(=O)O)C(C)C [compound 48] | 0.97 | 0.9 | 1.14 | 1 | 1.14 | 1.13
19 | c1ccc(-c2ccc(C(c3ccccc3)n3ccnc3)cc2)cc1 (stereo not drawn) [compound 27, BIFONAZOLE] | 0.84 | 0.84 | 1.06 | 0.99 | 1.04 | 1.19
20 | Cc1cc(CC(=O)O)n(C)c1C(=O)c1ccc(Cl)cc1 [compound 65, ZOMEPIRAC] | 0.79 | 0.85 | 0.92 | 0.83 | 0.73 | 0.76
21 | CNC(=C[N+](=O)[O-])NCCSCc1csc(CN(C)C)n1 [compound 78, NIZATIDINE] | 1.04 | 0.98 | 1.3 | 1.15 | 0.97 | 1.29
22 | O=C(O)CCNC(=O)c1ccccc1 [compound 32, BETAMIPRON] | 0.84 | 0.82 | 1.1 | 0.82 | 0.7 | 0.6
23 | O=C(O)c1cccnc1Nc1cccc(C(F)(F)F)c1 [compound 37, NIFLUMIC ACID] | 0.77 | 0.86 | 0.97 | 0.85 | 0.8 | 0.92
24 | CCN(CCO)CCCC(C)Nc1ccnc2cc(Cl)ccc12 (stereo not drawn) [compound 72, HYDROXYCHLOROQUINE] | 0.9 | 1.01 | 1.08 | 0.87 | 0.85 | 0.72
25 | O=C(CCNNC(=O)c1ccncc1)NCc1ccccc1 [compound 34, NIALAMIDE] | 0.92 | 0.87 | 1.16 | 0.97 | 0.92 | 1.13
26 | N[C@@H]1CONC1=O [compound 114, CYCLOSERINE] | 0.92 | 0.95 | 1.06 | 0.85 | 0.84 | 0.82
27 | CC(=O)Nc1cccc(O)c1 [compound 93, METACETAMOL] | 0.77 | 0.86 | 0.95 | 0.74 | 0.83 | 0.89
28 | CNCC[C@@H](Oc1ccccc1C)c1ccccc1 [compound 4, ATOMOXETINE] | 0.95 | 0.94 | 1.1 | 0.89 | 0.78 | 0.81
29 | Nc1nc(/C(=C/CC(=O)O)C(=O)N[C@@H]2C(=O)N3C(C(=O)O)=CCS[C@H]23)cs1 [compound 62, CEFTIBUTEN] | 0.79 | 0.87 | 1.01 | 0.83 | 0.76 | 0.55
30 | COc1ccc(CN2CCNCC2)c(OC)c1OC [compound 84, TRIMETAZIDINE] | 1.01 | 0.93 | 1.04 | 1.09 | 1.15 | 1.04
31 | CN1CCc2cccc3c2[C@H]1Cc1ccc(O)c(O)c1-3 [compound 8, APOMORPHINE] | 0.93 | 1.01 | 1.08 | 1.01 | 0.8 | 0.78
32 | C[C@@H]1O[C@@H](OC[C@H]2O[C@@H](Oc3c(-c4ccc(OCCO)c(OCCO)c4)oc4cc(OCCO)cc(O)c4c3=O)[C@H](O)[C@@H](O)[C@@H]2O)[C@H](O)[C@H](O)[C@H]1O [compound 110, TROXERUTIN] | 0.88 | 0.93 | 0.97 | 0.95 | 0.74 | 0.51
33 | CN1CCN(C2=Nc3ccccc3Oc3ccc(Cl)cc32)CC1 [compound 25, LOXAPINE] | 0.94 | 0.98 | 1.11 | 1.14 | 1.15 | 1.11
34 | CCCc1nc(C(C)(C)O)c(C(=O)OCc2oc(=O)oc2C)n1Cc1ccc(-c2ccccc2-c2nn[nH]n2)cc1 [compound 61, OLMESARTAN MEDOXOMIL] | 0.82 | 0.86 | 0.85 | 0.9 | 0.8 | 0.86
